Test results: ChEMBL document CHEMBL1201862, “PubChem BioAssay data set” (2004)
Activity calls are given as the source filed them.

What was measured:
Vero [1] = test: cells; assay type: functional, cell-based; conditions: Chlorocebus sabaeus
Vero [2] = test: cells; assay type: functional; conditions: Chlorocebus sabaeus
[3] = target: Hepatocyte nuclear factor 4-alpha (Homo sapiens, UniProt P41235); assay type: functional, cell-based;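 note: biochemical luminescence-based dose-response counterscreen measuring inhibition of HNF4 dimerization, run alongside a screen for blockers of ABHD5–perilipin-5 interaction; split luciferase complementation of HNF4 fusion proteins in cell lysate measuring dimerization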
Mu-type opioid receptor = Mu-type opioid receptor (Homo sapiens, UniProt P35372); test: (§1) Counterscreen for agonists of heterodimerization of the mu 1 (OPRM1) and delta 1 (OPRD1) opioid receptors: Luminescence-based cell-based high throughput dose response assay to identify agonists of OPRM1 homodimerization.; assay type: functional
[4] = target: 5-hydroxytryptamine receptor 5A (Homo sapiens, UniProt P47898); test: Counterscreen for agonists of OPRM1-OPRD1 heterodimerization: luminescence-based cell-based high throughput dose response assay to identify agonists of 5-hydroxytryptamine (serotonin) 5A receptor (HTR5A). [Related pubchem assays (depositor defined):AID504326, AID504355, AID504692, AID504904, AID504905]; assay type: functional
[5] = target: Delta-type opioid receptor (Homo sapiens, UniProt P41143); test: as §1, with “of OPRD1” for “of OPRM1”, “homodimerization. [Related pubchem assays (depositor defined):AID504326, AID504355, AID504692, AID504904, AID504905]” for “homodimerization.”; assay type: functional
Delta-type opioid receptor, sequence (P41143 whole entry): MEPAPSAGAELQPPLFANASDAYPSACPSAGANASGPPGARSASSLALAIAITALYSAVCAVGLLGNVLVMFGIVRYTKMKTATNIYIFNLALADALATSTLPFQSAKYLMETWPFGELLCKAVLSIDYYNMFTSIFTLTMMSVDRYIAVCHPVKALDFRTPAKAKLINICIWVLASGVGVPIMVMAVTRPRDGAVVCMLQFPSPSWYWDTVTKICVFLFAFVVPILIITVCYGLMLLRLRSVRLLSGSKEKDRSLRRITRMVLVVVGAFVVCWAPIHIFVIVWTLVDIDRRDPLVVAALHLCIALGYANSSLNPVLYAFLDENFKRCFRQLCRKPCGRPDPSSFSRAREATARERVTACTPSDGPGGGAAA

Hepatocyte nuclear factor 4-alpha, sequence (P41235 whole entry, the tested form may be a part): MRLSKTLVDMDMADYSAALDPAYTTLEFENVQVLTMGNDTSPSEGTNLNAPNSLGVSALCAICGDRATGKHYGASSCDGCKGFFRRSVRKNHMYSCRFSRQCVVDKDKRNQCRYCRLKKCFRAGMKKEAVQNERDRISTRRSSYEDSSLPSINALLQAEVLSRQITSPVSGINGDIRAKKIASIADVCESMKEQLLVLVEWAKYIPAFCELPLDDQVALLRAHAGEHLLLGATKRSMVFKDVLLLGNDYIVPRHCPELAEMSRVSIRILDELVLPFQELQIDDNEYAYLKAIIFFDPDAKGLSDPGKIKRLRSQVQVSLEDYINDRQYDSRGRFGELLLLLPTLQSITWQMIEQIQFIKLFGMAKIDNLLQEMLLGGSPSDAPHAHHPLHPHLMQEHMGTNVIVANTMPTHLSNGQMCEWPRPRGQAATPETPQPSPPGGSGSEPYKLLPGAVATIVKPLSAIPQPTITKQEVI
Mu-type opioid receptor, sequence (P35372 whole entry): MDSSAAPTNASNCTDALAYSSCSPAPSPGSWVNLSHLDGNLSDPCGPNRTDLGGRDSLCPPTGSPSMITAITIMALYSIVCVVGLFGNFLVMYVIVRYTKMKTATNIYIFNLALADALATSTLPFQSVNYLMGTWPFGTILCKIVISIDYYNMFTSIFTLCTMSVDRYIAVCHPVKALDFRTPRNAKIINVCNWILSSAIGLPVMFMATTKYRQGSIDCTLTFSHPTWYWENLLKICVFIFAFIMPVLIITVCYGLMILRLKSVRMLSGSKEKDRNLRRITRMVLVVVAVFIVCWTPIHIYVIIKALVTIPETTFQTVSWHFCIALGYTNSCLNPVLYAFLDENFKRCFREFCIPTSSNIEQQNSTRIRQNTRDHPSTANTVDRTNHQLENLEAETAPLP
5-hydroxytryptamine receptor 5A, sequence (P47898 whole entry): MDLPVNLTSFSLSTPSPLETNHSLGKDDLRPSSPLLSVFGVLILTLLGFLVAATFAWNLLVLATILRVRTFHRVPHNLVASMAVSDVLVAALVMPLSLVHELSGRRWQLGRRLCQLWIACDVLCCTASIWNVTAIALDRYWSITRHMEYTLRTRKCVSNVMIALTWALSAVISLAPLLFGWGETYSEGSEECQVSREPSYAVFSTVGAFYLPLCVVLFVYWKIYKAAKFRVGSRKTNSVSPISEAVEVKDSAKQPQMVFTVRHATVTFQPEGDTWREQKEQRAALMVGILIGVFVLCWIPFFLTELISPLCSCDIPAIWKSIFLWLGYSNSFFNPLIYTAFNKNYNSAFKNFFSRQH

Which results are given for COC(=O)c1ccc(Cn2cc(/C=C\[N+](=O)[O-])c3ccccc32)o1?
IC50 (Vero [1]): > 25 µM (active); CC50 (Vero [2]): 10.4 µM (active); IC50 [3]: 6.73 µM (active)

Which results are given for O=S(=O)(c1c(Cl)cc(Br)cc1Cl)N1CCN(C(=S)NC2CC2)CC1?
EC50 (Mu-type opioid receptor): > 92.5 µM (inactive); EC50 [4]: > 92.5 µM (inactive); EC50 [5]: 11.9 µM (inactive)
